What was measured:
[1] = Multiple Marker Experiment 1: urine samples, adherent with all markers, marker concentration by LC-MS/MS; conditions: for Subject A, Urine Results / Subject B, Urine Results / Subject C, Urine Results / Subject D, Urine Results / Average of Urine Samples / concentration at 8 day: each marker dosed once
Excerpt: (§1) All other markers were obtained from commercial sources. Urine and saliva were collected prior to each day's dosing of marker confirming the presence or absence of markers before the experiment started. […] The presence of all 7 markers at day 8 would confirm that all markers were ingested in the previous 7 day one week period.
(§2) Healthy volunteers with no recent exposure to the markers who were not currently taking prescribed medications, OTC medications or vitamins and supplements were chosen. Exposure to the markers more than one month before starting the experiment was allowed and no dietary restrictions were required. Subjects were given a 7 day blister pack with markers sequenced in the order above. Subjects verbally confirmed they understood the urine and saliva collection procedures. Instructions printed on the marker blister pack instructed subjects to collect urine and saliva each morning before they took the daily dose of marker. They were also instructed to take the daily dose of marker close to the same time each day.

[2] = Multiple Marker Experiment 2: urine samples, simulated non-adherence (one marker dose skipped per subject), LC-MS/MS; conditions: for Subject B, Urine Results / Subject C, Urine Results: collected before that day's dose; for Subject B, Urine Results / Subject C, Urine Results / concentration at 8 day: other markers dosed once; for concentration at 8 day: Urine Results, Day 8 sample
[3] = Multiple Marker Experiment 1: saliva samples, marker concentration by LC-MS/MS; conditions: human, in vivo;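 note: mean across four subjects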
Excerpt: as §1, §2

[4] = Day 1 sample, collected before that day's dose, Experiment #1, adherent with all markers
[5] = Day 2 sample, collected before that day's dose, Experiment #1, adherent with all markers
[6] = Day 3 sample, collected before that day's dose, Experiment #1, adherent with all markers
[7] = Day 4 sample, collected before that day's dose, Experiment #1, adherent with all markers
[8] = Day 5 sample, collected before that day's dose, Experiment #1, adherent with all markers
[9] = Day 6 sample, collected before that day's dose, Experiment #1, adherent with all markers
[10] = Day 7 sample, collected before that day's dose, Experiment #1, adherent with all markers
[11] = Day 8 sample, Experiment #1, adherent with all markers

SMILES: CN(C)C(=O)C(CCN1CCC(O)(c2ccc(Cl)cc2)CC1)(c1ccccc1)c1ccccc1 [Loperamide]
- Subject A, Urine Results [1, 4]: 0 ng/mL
- Subject B, Urine Results [1, 4]: 0 ng/mL
- Subject C, Urine Results [1, 4]: 0 ng/m
- Subject D, Urine Results [1, 4]: 0 ng/m
- Subject A, Urine Results [1, 5]: 0 ng/mL
- Subject B, Urine Results [1, 5]: 0 ng/mL
- Subject C, Urine Results [1, 5]: 0 ng/m
- Subject D, Urine Results [1, 5]: 0 ng/m
- Subject A, Urine Results [1, 6]: 28.4 ng/mL
- Subject B, Urine Results [1, 6]: 206 ng/mL
- Subject C, Urine Results [1, 6]: 75.2 ng/m
- Subject D, Urine Results [1, 6]: 110 ng/m
- Average of Urine Samples ([1]; Day 3 sample, collected before that day's dose, average of subjects A, B, C, D, Experiment 1): 104.9 ng/mL
- Subject A, Urine Results [1, 7]: 98.4 ng/mL
- Subject B, Urine Results [1, 7]: 26.8 ng/mL
- Subject C, Urine Results [1, 7]: 23.7 ng/m
- Subject D, Urine Results [1, 7]: 100 ng/m
- Average of Urine Samples ([1]; Day 4 sample, collected before that day's dose, average of subjects A, B, C, D, Experiment 1): 62.225 ng/mL
- Subject A, Urine Results [1, 8]: 31.6 ng/mL
- Subject B, Urine Results [1, 8]: 6.94 ng/mL
- Subject C, Urine Results [1, 8]: 7.11 ng/m
- Subject D, Urine Results [1, 8]: 18.6 ng/m
- Average of Urine Samples ([1]; Day 5 sample, collected before that day's dose, average of subjects A, B, C, D, Experiment 1): 16.0625 ng/mL
- Subject A, Urine Results [1, 9]: 24.1 ng/mL
- Subject B, Urine Results [1, 9]: 5.5 ng/mL
- Subject C, Urine Results [1, 9]: 5.02 ng/m
- Subject D, Urine Results [1, 9]: 6.37 ng/m
- Average of Urine Samples ([1]; Day 6 sample, collected before that day's dose, average of subjects A, B, C, D, Experiment 1): 10.2475 ng/mL
- Subject A, Urine Results [1, 10]: 0.035 ng/mL
- Subject B, Urine Results [1, 10]: 2.33 ng/mL
- Subject C, Urine Results [1, 10]: 2.41 ng/m
- Subject D, Urine Results [1, 10]: 5.8 ng/m
- Average of Urine Samples ([1]; Day 7 sample, collected before that day's dose, average of subjects A, B, C, D, Experiment 1): 2.644 ng/mL
- Subject C, Urine Results [1, 11]: 1.89 ng/m
- Subject D, Urine Results [1, 11]: 2.71 ng/m
- course of urine levels relative to dosing ([1]; Experiment 1, days 1-8): zero before dosing, peaked the day after dosing and slowly decreased over time
- concentration at 1 day ([1]; human, in vivo): 0 ng/mL
- concentration at 2 day ([1]; human, in vivo): 0 ng/mL
- concentration at 8 day ([1]; human, in vivo, Average of Urine Samples, Day 8 sample, average of subjects A, B, C, D, Experiment 1): 1.18 ng/mL
- concentration at 8 day ([1]; human, in vivo, Subject A, Urine Results, Day 8 sample, Experiment #1, adherent with all markers): 0.022 ng/mL
- concentration at 8 day ([1]; human, in vivo, Subject B, Urine Results, Day 8 sample, Experiment #1, adherent with all markers): 0.107 ng/mL
- Subject B, Urine Results ([2]; Day 1 sample, Experiment #2, subject B skipped diphenhydramine on day 5): 0 ng/mL
- Subject C, Urine Results ([2]; Day 1 sample, Experiment #2, subject C skipped Loperamide on day 2): 0 ng/mL
- Subject B, Urine Results ([2]; Day 2 sample, Experiment #2, subject B skipped diphenhydramine on day 5): 0 ng/mL
- Subject C, Urine Results ([2]; Day 2 sample, Experiment #2, subject C skipped Loperamide on day 2): 0 ng/mL
- Subject B, Urine Results ([2]; Day 3 sample, Experiment #2, subject B skipped diphenhydramine on day 5): 209 ng/mL
- Subject C, Urine Results ([2]; Day 3 sample, Experiment #2, subject C skipped Loperamide on day 2): 0 ng/mL
- Subject B, Urine Results ([2]; Day 4 sample, Experiment #2, subject B skipped diphenhydramine on day 5): 101 ng/mL
- Subject C, Urine Results ([2]; Day 4 sample, Experiment #2, subject C skipped Loperamide on day 2): 0 ng/mL
- Subject B, Urine Results ([2]; Day 5 sample, Experiment #2, subject B skipped diphenhydramine on day 5): 32.3 ng/mL
- Subject C, Urine Results ([2]; Day 5 sample, Experiment #2, subject C skipped Loperamide on day 2): 0 ng/mL
- Subject B, Urine Results ([2]; Day 6 sample, Experiment #2, subject B skipped diphenhydramine on day 5): 13.8 ng/mL
- Subject C, Urine Results ([2]; Day 6 sample, Experiment #2, subject C skipped Loperamide on day 2): 0 ng/mL
- Subject B, Urine Results ([2]; Day 7 sample, Experiment #2, subject B skipped diphenhydramine on day 5): 12.8 ng/mL
- Subject C, Urine Results ([2]; Day 7 sample, Experiment #2, subject C skipped Loperamide on day 2): 0 ng/mL
- course of urine levels relative to dosing ([2]; Experiment 2, days 1-8): zero before dosing, peaked the day after dosing and slowly decreased over time
- concentration at 1 day ([2]; human, in vivo): 0 ng/mL
- concentration at 2 day ([2]; human, in vivo): 0 ng/mL
- concentration at 8 day ([2]; human, in vivo, Subject B, Experiment #2, subject B skipped diphenhydramine on day 5): 2.92 ng/mL
- concentration at 8 day ([2]; human, in vivo, Subject C, Experiment #2, subject C skipped Loperamide on day 2): 0 ng/mL
- concentration at 1 day [3]: 0 ng/mL
- concentration at 2 day [3]: 0 ng/mL
- concentration at 3 day [3]: 0.431 ng/mL
- concentration at 4 day [3]: 0.18 ng/mL
- concentration at 5 day [3]: 0.257 ng/mL
- concentration at 6 day [3]: 0.112 ng/mL
- concentration at 7 day [3]: 0.0922 ng/mL
- concentration at 8 day [3]: 0.0265 ng/mL

— patent US10890591B2, “Methods and dose packs for monitoring medication adherence” (Synapse Biosciences, LLC, priority 2016, dated 2021)
